Measured values as given in patent US20090062251A1, “Novel Compounds 002” (ASTRAZENECA AB, priority 2007, published 2009).

Columns and labels:
[1] = target: T1, Human CB1 receptor (hCB1) (Homo sapiens, UniProt P21554); test: hCB1 receptor binding (3H-CP55,940 displacement); conditions: hCB1 membranes, Ki=IC50/(1+[rad]/Kd)
T1 construct: purchased Receptor Biology
Experimental: hCB1 and hCB2 Receptor Binding
Human CB1 receptor from Receptor Biology (hCB1) or human CB2 receptor from BioSignal (hCB2) membranes are thawed at 37° C., passed 3 times through a 25-gauge blunt-end needle, diluted in the cannabinoid binding buffer (50 mM Tris, 2.5 mM EDTA, 5 mM MgCl2, and 0.5 mg/mL BSA fatty acid free, pH 7.4) and aliquots containing the appropriate amount of protein are distributed in 96-well plates. […] The total and non-specific binding are determined in the absence and presence of 0.2 μM of HU210 respectively. The plates are vortexed and incubated for 60 minutes at room temperature, filtered through Unifilters GF/B (presoaked in 0.1% polyethyleneimine) with the Tomtec or Packard harvester using 3 mL of wash buffer (50 mM Tris, 5 mM MgCl2, 0.5 mg BSA pH 7.0). The filters are dried for 1 hour at 55° C. The radioactivity (cpm) is counted in a TopCount (Packard) after adding 65 μl/well of MS-20 scintillation liquid.
Based on the above assays, the dissociation constant (Ki) for a particular compound of the invention towards a particular receptor is determined using the following equation:
[rad] is a standard or reference radioactive ligand concentration at that moment; and
Kd is the dissociation constant of the radioactive ligand towards the particular receptor.

[2] = target: T1, Human CB1 receptor (hCB1); test: hCB1 GTPγS binding; assay type: biochemical; conditions: for EC50: hCB1 membranes, GTPγ35S, 10-point dose-response; for Emax: maximal stimulated binding determined with 10 μM Win 55,212-2
Experimental: hCB1 and hCB2 GTPγS Binding
Human CB1 receptor from Receptor Biology (hCB1) or human CB2 receptor membranes (BioSignal) are thawed at 37° C., passed 3 times through a 25-gauge blunt-end needle and diluted in the GTPγS binding buffer (50 mM Hepes, 20 mM NaOH, 100 mM NaCl, 1 mM EDTA, 5 mM MgCl2, pH 7.4, 0.1% BSA). […] The basal and maximal stimulated binding is determined in absence and presence of 1 μM (hCB2) or 10 μM (hCB1) Win 55, 212-2 respectively. The membranes are pre-incubated for 5 minutes with 56.25 μM (hCB2) or 112.5 μM (hCB1) GDP prior to distribution in plates (15 μM (hCB2) or 30 μM (hCB1) GDP final). The plates are vortexed and incubated for 60 minutes at room temperature, filtered on Unifilters GF/B (presoaked in water) with the Tomtec or Packard harvester using 3 ml of wash buffer (50 mM Tris, 5 mM MgCl2, 50 mM NaCl, pH 7.0). The filters are dried for 1 hour at 55° C. The radioactivity (cpm) is counted in a TopCount (Packard) after adding 65 μl/well of MS-20 scintillation liquid. Antagonist reversal studies are done in the same way except that (a) an agonist dose-response curve is done in the presence of a constant concentration of antagonist, or (b) an antagonist dose-response curve is done in the presence of a constant concentration of agonist.

T1 sequence (P21554 whole entry): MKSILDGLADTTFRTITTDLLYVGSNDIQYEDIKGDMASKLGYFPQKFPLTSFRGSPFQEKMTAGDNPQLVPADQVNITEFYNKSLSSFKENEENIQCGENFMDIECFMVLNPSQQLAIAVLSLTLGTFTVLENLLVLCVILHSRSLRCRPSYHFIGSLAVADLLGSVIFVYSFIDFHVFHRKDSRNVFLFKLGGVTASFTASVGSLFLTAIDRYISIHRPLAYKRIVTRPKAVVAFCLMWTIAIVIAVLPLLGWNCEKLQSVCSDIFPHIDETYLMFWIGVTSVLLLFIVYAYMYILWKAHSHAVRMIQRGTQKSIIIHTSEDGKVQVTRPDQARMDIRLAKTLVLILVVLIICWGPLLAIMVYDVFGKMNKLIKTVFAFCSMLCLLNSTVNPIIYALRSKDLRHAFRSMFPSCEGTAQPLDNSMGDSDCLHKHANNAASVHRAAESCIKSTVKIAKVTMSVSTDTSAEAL

Structure (SMILES)	Ki [1] [µM]	EC50 [2] [µM]	Emax [2] [%]
CCS(=O)(=O)n1c2c(c3cc(C(=O)N(C)CC(=O)NC4CC4)ccc31)CC(C1CCOCC1)CC2 (stereo not drawn) [N-(cyclopropylcarbamoylmethyl)-9-ethylsulfonyl-N-methyl-6-(oxan-4-yl)-5,6,7,8-tetrahydrocarbazole-3-carboxamide]	0.0181	0.0188	116
CCN(CC(=O)NC)C(=O)c1ccc2c(c1)c1c(n2C)CCC(C2CCOCC2)C1 (stereo not drawn) [N-ethyl-9-methyl-N-(methylcarbamoylmethyl)-6-(oxan-4-yl)-5,6,7,8-tetrahydrocarbazole-3-carboxamide]	0.14	0.342	116
CN(C(=O)c1ccc2c(c1)c1c(n2C)CC[C@@H](C2CCOCC2)C1)[C@H](CO)CCC(=O)NCCF [(R)—N-((S)-5-(2-Fluoroethylamino)-1-hydroxy-5-oxopentan-2-yl)-N,9-dimethyl-3-(tetrahydro-2H-pyran-4-yl)-2,3,4,9-tetrahydro-1H-carbazole-6-carboxamide]	0.026	0.061	118
CCNC(=O)CCCN(C)C(=O)c1ccc2c(c1)c1c(n2C)CCC(C2CCOCC2)C1 (stereo not drawn) [N-[3-(ethylcarbamoyl)propyl]-N,9-dimethyl-6-(oxan-4-yl)-5,6,7,8-tetrahydrocarbazole-3-carboxamide]	0.0366	0.0635	111
CCN(CC(=O)N[C@H]1CCOC1)C(=O)c1ccc2c(c1)c1c(n2C)CCC(C2CCOCC2)C1 (stereo partly drawn) [N-ethyl-9-methyl-6-(oxan-4-yl)-N-[[(3S)-oxolan-3-yl]carbamoylmethyl]-5,6,7,8-tetrahydrocarbazole-3-carboxamide]	0.0581	0.1	122
CCS(=O)(=O)n1c2c(c3cc(C(=O)N4CCC(C)CC4)ccc31)CC(C1CCCCC1)CC2 (stereo not drawn) [(6-cyclohexyl-9-ethylsulfonyl-5,6,7,8-tetrahydrocarbazol-3-yl)-(4-methyl-1-piperidyl)methanone]	0.0152	0.02	107
CCNC(=O)CN(CC)C(=O)c1ccc2c(c1)c1c(n2C(=O)N(C)C)CCC(C2CCOCC2)C1 (stereo not drawn) [N-ethyl-N-(ethylcarbamoylmethyl)-N′,N′-dimethyl-6-(oxan-4-yl)-5,6,7,8-tetrahydrocarbazole-3,9-dicarboxamide]	> 3.48	> 30	> 42
CC(C)S(=O)(=O)n1c2c(c3cc(C(=O)N(C)CC(=O)NC4CC4)ccc31)CC(C1CCCCC1)CC2 (stereo not drawn) [6-cyclohexyl-N-(cyclopropylcarbamoylmethyl)-N-methyl-9-propan-2-ylsulfonyl-5,6,7,8-tetrahydrocarbazole-3-carboxamide]	0.0212	0.0439	110
CCN(CC(=O)N[C@@H]1CCOC1)C(=O)c1ccc2c(c1)c1c(n2C)CCC(C2CCOCC2)C1 (stereo partly drawn) [N-ethyl-9-methyl-6-(oxan-4-yl)-N-[[(3R)-oxolan-3-yl]carbamoylmethyl]-5,6,7,8-tetrahydrocarbazole-3-carboxamide]	0.218	0.525	127
CCN(CCCCO)C(=O)c1ccc2c(c1)c1c(n2C)CCC(C2CCOCC2)C1 (stereo not drawn) [N-ethyl-N-(4-hydroxybutyl)-9-methyl-6-(oxan-4-yl)-5,6,7,8-tetrahydrocarbazole-3-carboxamide]	0.0723	0.275	122
Cn1c2c(c3cc(C(=O)N4CC[C@H](CC(=O)NC5CC5)C4)ccc31)CC(C1CCOCC1)CC2 (stereo partly drawn) [N-cyclopropyl-2-[(3R)-1-[9-methyl-6-(oxan-4-yl)5,6,7,8-tetrahydrocarbazole-3-carbonyl]pyrrolidin-3-yl]acetamide]	0.0355	0.0692	115
CCN(CC(=O)NC1COC1)C(=O)c1ccc2c(c1)c1c(n2C)CCC(C2CCOCC2)C1 (stereo not drawn) [N-ethyl-9-methyl-6-(oxan-4-yl)-N-(oxetan-3-ylcarbamoylmethyl)-5,6,7,8-tetrahydrocarbazole-3-carboxamide]	0.063	0.128	117
CCN(CC(=O)NCCCF)C(=O)c1ccc2c(c1)c1c(n2S(=O)(=O)CC)CCC(C2CCOCC2)C1 (stereo not drawn) [N-ethyl-9-ethylsulfonyl-N-(3-fluoropropylcarbamoylmethyl)-6-(oxan-4-yl)-5,6,7,8-tetrahydrocarbazole-3-carboxamide]	0.024	0.033	120
CCC(=O)NC1CCCN(C(=O)c2ccc3c(c2)c2c(n3C)CCC(C3CCOCC3)C2)C1 (stereo not drawn) [N-[1-[9-methyl-6-(oxan-4-yl)5,6,7,8-tetrahydrocarbazole-3-carbonyl]-3-piperidyl]propanamide]	0.0632	0.263	122
Cn1c2c(c3cc(C(=O)N4CCC(C(=O)NC5CC5)C4)ccc31)CC(C1CCOCC1)CC2 (stereo not drawn) [N-cyclopropyl-1-[9-methyl-6-(oxan-4-yl)5,6,7,8-tetrahydrocarbazole-3-carbonyl]pyrrolidine-3-carboxamide]	0.026	0.0185	121
CN(CC(=O)NCCF)C(=O)c1ccc2c(c1)c1c(n2C)CCC(C2CCOCC2)C1 (stereo not drawn) [N-(2-fluoroethylcarbamoylmethyl)-N,9-dimethyl-6-(oxan-4-yl)-5,6,7,8-tetrahydrocarbazole-3-carboxamide]	0.291	0.721	110
Cn1c2c(c3cc(C(=O)N4CCC(NC(=O)C5CC5)CC4)ccc31)CC(C1CCOCC1)CC2 (stereo not drawn) [N-[1-[9-methyl-6-(oxan-4-yl)5,6,7,8-tetrahydrocarbazole-3-carbonyl]-4-piperidyl]cyclopropanecarboxamide]	> 3.48	> 30	> 30
CN(CC(=O)NC1CC1)C(=O)c1ccc2c(c1)c1c(n2S(C)(=O)=O)CCC(C2CCCCC2)C1 (stereo not drawn) [6-cyclohexyl-N-(cyclopropylcarbamoylmethyl)-N-methyl-9-methylsulfonyl-5,6,7,8-tetrahydrocarbazole-3-carboxamide]	0.0079	0.0313	111
CCN(CC(=O)NCCF)C(=O)c1ccc2c(c1)c1c(n2C2CCC2)CCC(C2CCOCC2)C1 (stereo not drawn) [9-cyclobutyl-N-ethyl-N-(2-fluoroethylcarbamoylmethyl)-6-(oxan-4-yl)-5,6,7,8-tetrahydrocarbazole-3-carboxamide]	0.131	0.279	80
CCNC(=O)CC[C@@H](CO)N(C)C(=O)c1ccc2c(c1)c1c(n2C)CC[C@@H](C2CCOCC2)C1 [(R)—N-((S)-5-(Ethylamino)-1-hydroxy-5-oxopentan-2-yl)-N,9-dimethyl-3-(tetrahydro-2H-pyran-4-yl)-2,3,4,9-tetrahydro-1H-carbazole-6-carboxamide]	0.036	0.079	126
CC1CCN(C(=O)c2ccc3c(c2)c2c(n3S(C)(=O)=O)CCC(C3CCCCC3)C2)CC1 (stereo not drawn) [(6-cyclohexyl-9-methylsulfonyl-5,6,7,8-tetrahydrocarbazol-3-yl)-(4-methyl-1-piperidyl)methanone]	0.0753	0.277	89
CC(C)C(=O)NC1CCCN(C(=O)c2ccc3c(c2)c2c(n3C)CCC(C3CCOCC3)C2)C1 (stereo not drawn) [2-methyl-N-[1-[9-methyl-6-(oxan-4-yl)5,6,7,8-tetrahydrocarbazole-3-carbonyl]-3-piperidyl]propanamide]	0.157	0.401	118
CCNC(=O)C1CCN(C(=O)c2ccc3c(c2)c2c(n3C)CCC(C3CCOCC3)C2)C1 (stereo not drawn) [N-ethyl-1-[9-methyl-6-(oxan-4-yl)5,6,7,8-tetrahydrocarbazole-3-carbonyl]pyrrolidine-3-carboxamide]	0.163	0.324	119
CCNC(=O)CN(CC)C(=O)c1ccc2c(c1)c1c(n2C)CCC(C2CCOCC2)C1 (stereo not drawn) [N-ethyl-N-(ethylcarbamoylmethyl)-9-methyl-6-(oxan-4-yl)-5,6,7,8-tetrahydrocarbazole-3-carboxamide]	0.0174	0.0331	121
